Test results reported in patent US20230312587A1, “PTERIDINONE COMPOUNDS AND USES THEREOF” (Vertex Pharmaceutical Incorporated, priority 2018, published 2023).

Key:
[1] = target: HEK293 membranes over-expressing WFS-1 (Homo sapiens (Human), UniProt O76024); assay: Radioligand displacement assay (tritiated Compound 136 probe); format: binding; conditions: displacement of tritiated Compound 136
Outline: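 WFS-1-overexpressing HEK293 membranes were preincubated 10 min with compound, then tritiated probe was added for 90 min at room temperature. Bound probe was collected by filtration on PEI-pretreated GF/B filters, washed and scintillation-counted. IC50 came from a 3-parameter fit of bound probe vs compound concentration.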

[2] = test system: Hek293 WFS1 over-expressor; assay: In vitro cell viability (CellTiter-Glo), Hek293 WFS1 over-expressor; format: cell-based; conditions: Homo sapiens, HEK293, Hek293 WFS1 over-expressing cells; read-out: Hek293 WFS1 viability
Method: WFS1 cDNA is amplified from clone RC202901 (Origene Technologies) with primers 5′-TCCGCGGCCCCAAGCTTATCGCCATGGACTCCAACACTGC-3′ (SEQ ID NO: 1), 5′-GATGGGCCCAGATCTCGAGTCAGGCCGCCGACAGGAATG-3′ (SEQ ID NO: 2) and cloned into a retroviral mammalian expression vector pCLPCX using HD Infusion (CLONTECH) at Hind3-Xhol sites using standard procedures. The resulting clone is identified as pCLPCX_WFS1.
HEK293 (ATCC, catalog #CRL-1573) cells are plated in 10 cm dishes (Corning, product #430167) into 10 mL of complete DMEM cell culture media [DMEM (Life Technologies, product #11960-051) media supplemented with 10% FBS (Hyclone, catalog #SH30071.03), antimycotic/antibiotic (Life Technologies, product #15240-062), and Glutamax (Life Technologies, product #35050-061)] at 3×10^6 cells per dish. Cells are allowed to attach and grow overnight at 37° C. in humidified 5% CO2. Cells are co-transfected with pVSV-G, pCMV-Gag/Pol and pCLPCX_WFS1 using Fugene 6 (Promega, catalog #E2691) according to manufacturer's protocol. Separately, cells are co-transfected with pVSV-G, pCMV-Gag/Pol and pCLPCX to produce control retrovirus. Cell culture media containing retrovirus (viral supernatant) is collected at 48 and 72 hours following transfection, filtered through a 0.4 uM filter, and stored at −80° C.
HEK293 cells are plated in 6 well plates (Corning, product #3516) in 2 mL of complete DMEM cell culture media at 1×10^5 cells well and allowed to attach and grow overnight at 37° C. in humidified 5% CO2. The following day, the media is replaced with viral supernatant to which 10 ug/ml of Polybrene® (Santa Cruz Biotech, catalog #sc-134220) is added. Viral supernatant is replaced 24 hours later with complete DMEM media. Transduced cells are selected in complete DMEM cell culture media containing 1 microgram/mL of puromycin (Life Technologies, catalog #A1113803).
HEK293 cells containing empty pCLPCx vector (HEK293 empty), HEK293 cells stably over-expression WFS1 (HEK293 WFS1), HepG2, and HepG2 cells where WFS1 was depleted via CRISPR/Cas9 (HepG2 WFS1 KO) cells were plated into 96-well black plates (Corning, product #3904) in 100 microliters of complete DMEM cell culture media [DMEM (Life Technologies, product #11960-051) media supplemented with 10% FBS (Hyclone, catalog #SH30071.03), antimycotic/antibiotic (Life Technologies, product #15240-062), and Glutamax (Life Technologies, product #35050-061)] at 1,000 (HEK293) or 5,000 (HepG2) cells per well. Cells were allowed to attach and grow overnight, after which compounds are added at various concentrations. Cell viability was assessed 96 hrs after compound addition with CellTiter-Glo reagent (Promega, catalog #G7570) according to manufacturer's protocol and measurement on a Pherastar luminescence plate reader (BMG Labtech).
The IC50s for the viability of both the Hek293 empty vector and WFS1 over-expressing cells are summarized in Table 47: A<0.06 μM; 0.06 μM≤B<0.6 μM; 0.6 μM≤C<3.0 μM; D≥3.0 μM.

Sequence of HEK293 membranes over-expressing WFS-1 (O76024 whole entry): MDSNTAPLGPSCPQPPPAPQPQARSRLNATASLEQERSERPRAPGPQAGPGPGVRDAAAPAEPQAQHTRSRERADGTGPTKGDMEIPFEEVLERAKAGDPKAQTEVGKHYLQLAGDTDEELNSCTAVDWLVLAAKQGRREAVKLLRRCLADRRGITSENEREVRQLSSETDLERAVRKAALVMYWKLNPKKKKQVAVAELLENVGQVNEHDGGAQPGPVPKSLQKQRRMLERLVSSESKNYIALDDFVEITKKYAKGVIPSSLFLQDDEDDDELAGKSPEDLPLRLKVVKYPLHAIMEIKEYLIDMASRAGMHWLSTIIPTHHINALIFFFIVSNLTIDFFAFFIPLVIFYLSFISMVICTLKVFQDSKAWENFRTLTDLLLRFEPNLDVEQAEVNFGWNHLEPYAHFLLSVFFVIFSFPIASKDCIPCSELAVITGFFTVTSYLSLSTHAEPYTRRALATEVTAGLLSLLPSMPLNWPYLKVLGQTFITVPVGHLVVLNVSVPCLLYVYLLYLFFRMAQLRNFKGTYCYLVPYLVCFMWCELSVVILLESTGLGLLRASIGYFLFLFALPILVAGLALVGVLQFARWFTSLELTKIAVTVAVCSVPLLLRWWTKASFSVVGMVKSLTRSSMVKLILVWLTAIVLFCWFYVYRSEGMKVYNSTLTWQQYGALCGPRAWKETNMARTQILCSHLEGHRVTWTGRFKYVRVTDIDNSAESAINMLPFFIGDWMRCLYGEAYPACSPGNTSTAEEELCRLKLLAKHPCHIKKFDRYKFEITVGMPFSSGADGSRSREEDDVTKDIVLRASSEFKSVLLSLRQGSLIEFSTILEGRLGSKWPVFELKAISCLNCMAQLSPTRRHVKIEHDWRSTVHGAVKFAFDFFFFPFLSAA

Structure (SMILES) | IC50 [1] | IC50 [2]
Cc1nc(NCc2cnn(Cc3cccc(C(C)C)c3)c2)nc2c1NC(=O)[C@H](C)N2C [Compound 80, (7S)-2-(((1-(3-isopropylbenzyl)-1H-pyrazol-4-yl)methyl)amino)-4,7,8-trimethyl-7,8-dihydropteridin-6(5H)-one] | < 60 nM | < 60 nM
Cc1ncc(Cn2cc(CNc3nc(C)c4c(n3)N(C)[C@@H](C)C(=O)N4)cn2)cn1 [Compound 163, (7S)-4,7,8-trimethyl-2-(((1-((2-methylpyrimidin-5-yl)methyl)-1H-pyrazol-4-yl)methyl)amino)-7,8-dihydropteridin-6(5H)-one] | ≥ 3000 nM | ≥ 3000 nM
Cc1cc(F)ncc1Cn1cc(CNc2nc(C)c3c(n2)N(C)[C@@H](C(C)C)C(=O)N3)cn1 [Compound 423, (7S)-2-(((1-((6-fluoro-4-methylpyridin-3-yl)methyl)-1H-pyrazol-4-yl)methyl)amino)-7-isopropyl-4,8-dimethyl-7,8-dihydropteridin-6(5H)-one] | 60 to 600 nM | < 60 nM
Cc1nc(N[C@H]2C[C@@H](COc3cc(F)c(F)c(F)c3)C2)nc2c1NC(=O)[C@H](C)N2C [Compound 257, (7S)-4,7,8-Trimethyl-2-((cis-3-((3,4,5-trifluorophenoxy)methyl)cyclobutyl)-amino)-7,8-dihydropteridin-6(5H)-one] | 60 to 600 nM | < 60 nM
Cc1nc(NCc2cnn(Cc3ccc(C(F)(F)F)nc3C(C)(C)O)c2)nc2c1NC(=O)[C@H](C)N2C [Compound 416, (7S)-2-(((1-((2-(2-hydroxypropan-2-yl)-6-(trifluoromethyl)pyridin-3-yl)methyl)-1H-pyrazol-4-yl)methyl)amino)-4,7,8-trimethyl-7,8-dihydropteridin-6(5H)-one] | < 60 nM | < 60 nM
Cc1nn(C)cc1Cn1cc(CNc2nc(C)c3c(n2)N(C)[C@@H](C)C(=O)N3)cn1 [Compound 139, (7S)-2-(((1-((1,3-dimethyl-1H-pyrazol-4-yl)methyl)-1H-pyrazol-4-yl)methyl)amino)-4,7,8-trimethyl-7,8-dihydropteridin-6(5H)-one] | 600 to 3000 nM | ≥ 3000 nM
Cc1ccc(Cn2cc(CNc3nc(C)c4c(n3)N(C)[C@@H](C)C(=O)N4)cn2)cn1 [Compound 173, (7S)-4,7,8-trimethyl-2-(((1-((6-methylpyridin-3-yl)methyl)-1H-pyrazol-4-yl)methyl)amino)-7,8-dihydropteridin-6(5H)-one] | 600 to 3000 nM | 60 to 600 nM
Cc1nc(N[C@H]2C[C@H](Oc3ccnc(C(F)(F)F)c3)C2)nc2c1NC(=O)[C@H](C)N2C [Compound 335, (7S)-4,7,8-trimethyl-2-((trans-3-((2-(trifluoromethyl)pyridin-4-yl)oxy)cyclobutyl)amino)-7,8-dihydropteridin-6(5H)-one] | < 60 nM | < 60 nM
Cc1nc(NCc2cnn(CCc3ccc(F)cc3)c2)nc2c1NC(=O)[C@H](C)N2C [Compound 6, (7S)-2-(((1-(4-fluorophenethyl)-1H-pyrazol-4-yl)methyl)amino)-4,7,8-trimethyl-7,8-dihydropteridin-6(5H)-one] | 60 to 600 nM | 60 to 600 nM
Cc1nc(NCc2cn(Cc3ccc(C(F)(F)F)nc3)cn2)nc2c1NC(=O)[C@H](C)N2C [Compound 428, (S)-4,7,8-trimethyl-2-(((1-((6-(trifluoromethyl)pyridin-3-yl)methyl)-1H-imidazol-4-yl)methyl)amino)-7,8-dihydropteridin-6(5H)-one] | ≥ 3000 nM | ≥ 3000 nM
Cc1nc(N[C@H]2CC[C@H](n3ccc(C(F)(F)F)n3)C2)nc2c1NC(=O)[C@H](C)N2C (single isomer, unassigned) [Compound 310] | 600 to 3000 nM | 60 to 600 nM
Cc1nc(N[C@H]2C[C@@H](Oc3cc(F)c(F)c(F)c3)C2)nc2c1NC(=O)[C@H](C)N2C [Compound 247, (7S)-4,7,8-trimethyl-2-((cis-3-(3,4,5-trifluorophenoxy)cyclobutyl)amino)-7,8-dihydropteridin-6(5H)-one] | 60 to 600 nM | ≥ 3000 nM
Cc1nc(NCc2cnn(Cc3ccc(C(F)(F)F)nc3)c2)nc2c1NC(=O)[C@H](C(C)C)N2C [Compound 383, (7S)-7-isopropyl-4,8-dimethyl-2-(((1-((6-(trifluoromethyl)pyridin-3-yl)methyl)-1H-pyrazol-4-yl)methyl)amino)-7,8-dihydropteridin-6(5H)-one] | < 60 nM | < 60 nM
Cc1nc(NCc2cnn(Cc3ccc(Cl)nc3)c2)nc2c1NC(=O)[C@H](C(C)C)N2C [Compound 409, (7S)-2-(((1-((6-chloropyridin-3-yl)methyl)-1H-pyrazol-4-yl)methyl)amino)-7-isopropyl-4,8-dimethyl-7,8-dihydropteridin-6(5H)-one] | < 60 nM | < 60 nM
CC(=O)N(Cc1cnn(Cc2ccc(C(F)(F)F)nc2)c1)c1nc(C)c2c(n1)N(C)[C@@H](C)C(=O)N2 [Compound 405, (7S)-N-((1-((6-(trifluoromethyl)pyridin-3-yl)methyl)-1H-pyrazol-4-yl)methyl)-N-(4,7,8-trimethyl-6-oxo-5,6,7,8-tetrahydropteridin-2-yl)acetamide] | ≥ 3000 nM | ≥ 3000 nM
Cc1ncc(Cn2cc(CNc3nc(C)c4c(n3)N(C)[C@@H](C(C)C)C(=O)N4)cn2)cc1F [Compound 425, (7S)-2-(((1-((5-fluoro-6-methylpyridin-3-yl)methyl)-1H-pyrazol-4-yl)methyl)amino)-7-isopropyl-4,8-dimethyl-7,8-dihydropteridin-6(5H)-one] | 60 to 600 nM | 60 to 600 nM
Cc1nc(NCc2cnn(Cc3ccnc(C(F)(F)F)c3)c2)nc2c1NC(=O)[C@H](C)N2C [Compound 207, (7S)-4,7,8-trimethyl-2-(((1-((2-(trifluoromethyl)pyridin-4-yl)methyl)-1H-pyrazol-4-yl)methyl)amino)-7,8-dihydropteridin-6(5H)-one] | 60 to 600 nM | < 60 nM
Cc1nc(NCc2cnn([C@H]3CCN(C4CCC(F)(F)CC4)C3)c2)nc2c1NC(=O)[C@H](C)N2C [Compound 142, (7S)-2-(((1-((S)-1-(4,4-difluorocyclohexyl)pyrrolidin-3-yl)-1H-pyrazol-4-yl)methyl)amino)-4,7,8-trimethyl-7,8-dihydropteridin-6(5H)-one] | 60 to 600 nM | 60 to 600 nM
Cc1nc(N[C@H]2C[C@H](Oc3ccc(F)nc3)C2)nc2c1NC(=O)[C@H](C)N2C [Compound 357, (7S)-2-((trans-3-((6-fluoropyridin-3-yl)oxy)cyclobutyl)amino)-4,7,8-trimethyl-7,8-dihydropteridin-6(5H)-one] | 60 to 600 nM | 60 to 600 nM
Cc1nc(NCc2cnn([C@@H]3CCN(c4ccc(F)cc4)C3)c2)nc2c1NC(=O)[C@H](C)N2C [Compound 170, (7S)-2-(((1-((R)-1-(4-fluorophenyl)pyrrolidin-3-yl)-1H-pyrazol-4-yl)methyl)amino)-4,7,8-trimethyl-7,8-dihydropteridin-6(5H)-one] | 60 to 600 nM | < 60 nM
Cc1nc(N[C@H]2C[C@H](Oc3cc(F)c(F)c(F)c3)C2)nc2c1NC(=O)[C@H](C)N2C [Compound 246, (7S)-4,7,8-trimethyl-2-((trans-3-(3,4,5-trifluorophenoxy)cyclobutyl)amino)-7,8-dihydropteridin-6(5H)-one] | 60 to 600 nM | < 60 nM
